In patent publication US10131652B2, “Pyrimidinyloxy benzene derivatives as herbicides” (E. I. DU PONT DE NEMOURS AND COMPANY, priority 2014, dated 2018):

Tests used:
Experiment in all cases: Test D pre-/postemergence plant response
Type in all cases: in vivo
Conditions in all cases: Postemergence
[1] = test system: morningglory (Ipomoea coccinea)
In short: (§1)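 Each compound, in non-phytotoxic solvent with surfactant, was sprayed onto soil right after sowing or onto young plants 2 to 18 cm tall. After 13 to 15 days under greenhouse conditions, effects were judged visually against controls on a 0 (no effect) to 100 (complete control) scale.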

[2] = test system: large (Lg) crabgrass (Digitaria sanguinalis)
In short: as §1

[3] = test system: barnyardgrass (Echinochloa crus-galli)
In short: as §1

[4] = test system: giant foxtail (Setaria faberii)
In short: as §1

[5] = test system: winter wheat (Triticum aestivum)
In short: as §1

[6] = test system: velvetleaf (Abutilon theophrasti)
In short: as §1

[7] = test system: pigweed (Amaranthus retroflexus)
In short: as §1

[8] = test system: galium (catchweed bedstraw, Galium aparine)
In short: as §1

[9] = test system: blackgrass (Alopecurus myosuroides)
In short: as §1

[10] = test system: lambsquarters (Chenopodium album)
In short: as §1

[11] = test system: corn (Zea mays)
In short: as §1

[12] = test system: soybean (Glycine max)
In short: as §1

[13] = test system: oilseed rape (Brassica napus)
In short: as §1

[14] = test system: ragweed (common ragweed, Ambrosia elatior)
In short: as §1

[15] = test system: waterhemp (common waterhemp, Amaranthus rudis)
In short: as §1

[16] = test system: yellow nutsedge (Cyperus esculentus)
In short: as §1

[17] = test system: johnsongrass (Sorghum halepense)
In short: as §1

[18] = test system: Italian ryegrass (Lolium multiflorum)
In short: as §1

[19] = 31 g ai/ha, scale 0 to 100 (0 no effect, 100 complete control)
[20] = 62 g ai/ha, scale 0 to 100, 0 no effect, 100 complete control
[21] = 125 g ai/ha, scale 0 to 100, 0 no effect, 100 complete control

Cc1cc(-c2c(F)cccc2Oc2ncc(Br)cn2)on1 [Compound 230]
0: Plant response rating (scale 0 to 100), Crabgrass, Large ([2]; 16 g ai/ha) | Plant response rating (scale 0 to 100), Blackgrass ([9]; 16 g ai/ha) | Plant response rating (scale 0 to 100), Corn ([11]; 16 g ai/ha) | Corn plant response rating [11, 19] | Corn plant response rating [11, 20] | Plant response rating (scale 0 to 100), Nutsedge, Yellow ([16]; 16 g ai/ha) | Nutsedge, Yellow plant response rating [16, 19] | Plant response rating (scale 0 to 100), Johnsongrass ([17]; 16 g ai/ha) | Johnsongrass plant response rating [17, 19] | Plant response rating (scale 0 to 100), Ryegrass, Italian ([18]; 16 g ai/ha) | Ryegrass, Italian plant response rating [18, 19]
85: Plant response rating, Pigweed [7, 21] | Galium plant response rating [8, 19] | Galium plant response rating [8, 20] | Plant response rating, Soybean [12, 21]
70: Plant response rating, Morningglory [1, 21] | Pigweed plant response rating [7, 20] | Lambsquarters plant response rating [10, 19] | Plant response rating, Lambsquarters [10, 21] | Waterhemp plant response rating [15, 19]
10: Plant response rating, Crabgrass, Large [2, 21] | Barnyardgrass plant response rating [3, 20] | Foxtail, Giant plant response rating [4, 20] | Plant response rating, Foxtail, Giant [4, 21] | Blackgrass plant response rating [9, 19] | Blackgrass plant response rating [9, 20] | Plant response rating, Blackgrass [9, 21]
5: Plant response rating (scale 0 to 100), Morningglory ([1]; 16 g ai/ha) | Morningglory plant response rating [1, 19] | Morningglory plant response rating [1, 20] | Crabgrass, Large plant response rating [2, 19] | Crabgrass, Large plant response rating [2, 20] | Plant response rating (scale 0 to 100), Barnyardgrass ([3]; 16 g ai/ha) | Barnyardgrass plant response rating [3, 19] | Plant response rating, Barnyardgrass [3, 21] | Plant response rating (scale 0 to 100), Foxtail, Giant ([4]; 16 g ai/ha) | Foxtail, Giant plant response rating [4, 19] | Plant response rating (scale 0 to 100), Wheat ([5]; 16 g ai/ha) | Wheat plant response rating [5, 19] | Wheat plant response rating [5, 20] | Nutsedge, Yellow plant response rating [16, 20] | Plant response rating, Nutsedge, Yellow [16, 21] | Johnsongrass plant response rating [17, 20] | Plant response rating, Johnsongrass [17, 21] | Ryegrass, Italian plant response rating [18, 20] | Plant response rating, Ryegrass, Italian [18, 21]
30: Plant response rating (scale 0 to 100), Ragweed ([14]; 16 g ai/ha)
75: Oilseed Rape plant response rating [13, 20] | Plant response rating, Oilseed Rape [13, 21] | Waterhemp plant response rating [15, 20]
55: Velvetleaf plant response rating [6, 20] | Plant response rating (scale 0 to 100), Lambsquarters ([10]; 16 g ai/ha) | Soybean plant response rating [12, 19] | Ragweed plant response rating [14, 20] | Plant response rating, Ragweed [14, 21]
50: Plant response rating (scale 0 to 100), Soybean ([12]; 16 g ai/ha) | Plant response rating (scale 0 to 100), Oilseed Rape ([13]; 16 g ai/ha)
15: Plant response rating, Wheat [5, 21] | Plant response rating, Corn [11, 21]
25: Plant response rating (scale 0 to 100), Velvetleaf ([6]; 16 g ai/ha)
60: Plant response rating (scale 0 to 100), Pigweed ([7]; 16 g ai/ha) | Oilseed Rape plant response rating [13, 19]
40: Velvetleaf plant response rating [6, 19] | Ragweed plant response rating [14, 19]
95: Plant response rating, Galium [8, 21]
80: Plant response rating (scale 0 to 100), Galium ([8]; 16 g ai/ha) | Lambsquarters plant response rating [10, 20] | Plant response rating, Waterhemp [15, 21]
65: Plant response rating, Velvetleaf [6, 21] | Pigweed plant response rating [7, 19] | Soybean plant response rating [12, 20] | Plant response rating (scale 0 to 100), Waterhemp ([15]; 16 g ai/ha)
